According to patent publication US9539262B2, “Ophthalmic composition comprising a prostaglandin” (SUN PHARMA ADVANCED RESEARCH COMPANY, LTD., priority 2007, dated 2017):

Tested on: New Zealand White Rabbits
Experiment: Ocular irritancy potential and systemic toxicity, daily repeated ocular instillation
Type: in vivo
Method: The pharmaceutical compositions of the present invention were tested in New Zealand White Rabbits, for ocular irritancy potential and systemic toxicity. The pharmaceutical composition of the present invention and polyethylene glycol hydroxystearate (the excipient) both were tested. The test involved daily repeated ocular instillation for at least 14 days.

CC(C)OC(=O)CCC/C=C\C[C@@H]1[C@@H](CC[C@@H](O)CCc2ccccc2)[C@H](O)C[C@@H]1O [latanoprost, isopropyl-(Z)-7[(1R,2R,3R,5S)3,5-dihydroxy-2-[(3R)-3-hydroxy-5-phenylpentyl]cyclopentyl]-5-heptenoate]
gross or microscopical pathological lesion (at least 14 days ocular instillation): did not result into any gross or microscopical pathological lesion
alterations in body weight, % body weight gain, terminal body weight, absolute and relative organ weights, differential cell count of bone marrow, biochemical and hematological parameters (at least 14 days ocular instillation, compared to the control group): no statistically significant alterations
clinical sign or irritation in the eyes (daily repeated ocular instillation for at least 14 days, Solutol HS 15 approximately 47 times HRD, latanoprost approximately 48 times HRD): no clinical sign or irritation in the eyes
